Key:
[1] = Solubility in water and aqueous solutions; format: physicochemical; settings: aqueous solution at pH 6.0 containing 0.5% (w/w) of macrogol 15-hydroxystearate (Kolliphor® HS15)
[2] = Impagnatiello et al., cited from earlier work

Q: Which solubility [1] does the source give for `CCNC(=O)CCC/C=C\C[C@@H]1[C@@H](/C=C/[C@H](CCc2ccccc2)OC(=O)CCCCCO[N+](=O)[O-])[C@H](O)C[C@@H]1O` [NCX 470, Hexanoic acid, 6-(nitrooxy)-, (1S,2E)-3-[(1R,2R,3S,5R)-2-[(2Z)-7-(ethylamino)-7-oxo-2-hepten-1-yl]-3,5-dihydroxycyclopentyl]-1-(2-phenylethyl)-2-propen-1-yl ester] here?
A: Its solubility is 0.070 % (w/w).

Q: And the “IOP-lowering efficacy versus equimolar doses of bimatoprost” value ([2]; British Journal of Pharmacology (2018), vehicle 0.25% Tween 80, 0.02% BAK, 2% glycerine, 0.1% EDTA)?
A: The value was “greater IOP-lowering efficacy”.

Q: What about the “intra ocular pressure (IOP)-lowering agent” value ([2]; Invest Ophthalmol Vis Sci. 2015) of the same compound?
A: Its value is “effective”.
